Reference: ChEMBL document CHEMBL5046315, “CRCM5484: A BET-BDII Selective Compound with Differential Anti-leukemic Drug Modulation” (J Med Chem, 2022)
Activity calls are given as the source filed them. No cut-off for these calls is given here.

Columns and labels:
[1] = system: CCRF-CEM; experiment: Potentiation of imatinib-induced antileukemic activity against human CCRF-CEM cells at 4.3 uM in presence of bone-marrow derived stromal cell-conditioned medium; assay type: functional, cell-based
[2] = system: MOLM-14; experiment: Potentiation of JQ1-induced antileukemic activity against human MOLM-14 cells at 4.3 uM in presence of bone-marrow derived stromal cell-conditioned medium; assay type: functional, cell-based
[3] = system: U-937; experiment: Potentiation of trametinib-induced antileukemic activity against human U-937 cells at 4.3 uM in presence of bone-marrow derived stromal cell-conditioned medium; assay type: functional, cell-based
[4] = molecular target: Bromodomain-containing protein 3 (Homo sapiens, UniProt Q15059); experiment: Inhibition of BRD3-BD1 domain (unknown origin) incubated for 6 hrs by HTRF method
Bromodomain-containing protein 3, sequence (Q15059 whole entry, the tested form may be a part): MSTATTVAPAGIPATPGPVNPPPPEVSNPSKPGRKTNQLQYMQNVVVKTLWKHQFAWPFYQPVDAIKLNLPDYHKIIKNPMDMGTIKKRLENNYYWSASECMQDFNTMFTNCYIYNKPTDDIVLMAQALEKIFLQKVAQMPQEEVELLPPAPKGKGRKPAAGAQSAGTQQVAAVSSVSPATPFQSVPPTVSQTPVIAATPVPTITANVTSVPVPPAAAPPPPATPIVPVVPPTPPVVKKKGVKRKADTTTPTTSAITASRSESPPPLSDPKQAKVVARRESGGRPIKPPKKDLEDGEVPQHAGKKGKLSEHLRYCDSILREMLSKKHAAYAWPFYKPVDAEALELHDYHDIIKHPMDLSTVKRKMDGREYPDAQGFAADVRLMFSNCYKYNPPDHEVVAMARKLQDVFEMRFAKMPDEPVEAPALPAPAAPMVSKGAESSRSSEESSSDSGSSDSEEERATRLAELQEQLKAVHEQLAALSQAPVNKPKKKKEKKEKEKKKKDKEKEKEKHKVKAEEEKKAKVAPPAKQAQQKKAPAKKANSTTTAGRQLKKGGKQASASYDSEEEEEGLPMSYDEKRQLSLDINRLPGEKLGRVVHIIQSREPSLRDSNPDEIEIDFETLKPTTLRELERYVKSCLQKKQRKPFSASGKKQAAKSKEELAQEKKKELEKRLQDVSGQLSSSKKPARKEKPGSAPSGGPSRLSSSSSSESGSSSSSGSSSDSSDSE

[5] = system: MOLM-14; experiment: Potentiation of decitabine-induced antileukemic activity against human MOLM-14 cells at 4.3 uM in presence of bone-marrow derived stromal cell-conditioned medium; assay type: functional, cell-based
[6] = system: MOLM-14; experiment: Potentiation of everolimus-induced antileukemic activity against human MOLM-14 cells at 4.3 uM in presence of bone-marrow derived stromal cell-conditioned medium; assay type: functional, cell-based
[7] = system: MOLM-14; experiment: Potentiation of AT9283-induced antileukemic activity against human MOLM-14 cells at 4.3 uM in presence of bone-marrow derived stromal cell-conditioned medium; assay type: functional, cell-based
[8] = system: U-937; experiment: Potentiation of SGI-1776-induced antileukemic activity against human U-937 cells at 4.3 uM in presence of bone-marrow derived stromal cell-conditioned medium; assay type: functional, cell-based
[9] = system: CCRF-CEM; experiment: Potentiation of luminespid-induced antileukemic activity against human CCRF-CEM cells at 4.3 uM in presence of bone-marrow derived stromal cell-conditioned medium; assay type: functional, cell-based
[10] = system: MOLM-14; experiment: Potentiation of prima1-induced antileukemic activity against human MOLM-14 cells at 4.3 uM in presence of bone-marrow derived stromal cell-conditioned medium; assay type: functional, cell-based
[11] = system: CCRF-CEM; experiment: Potentiation of olaparid-induced antileukemic activity against human CCRF-CEM cells at 4.3 uM in presence of bone-marrow derived stromal cell-conditioned medium; assay type: functional, cell-based
[12] = system: CCRF-CEM; experiment: Potentiation of selinexor-induced antileukemic activity against human CCRF-CEM cells at 4.3 uM in presence of bone-marrow derived stromal cell-conditioned medium; assay type: functional, cell-based
[13] = system: U-937; experiment: Potentiation of etoposide-induced antileukemic activity against human U-937 cells at 4.3 uM in presence of bone-marrow derived stromal cell-conditioned medium; assay type: functional, cell-based
[14] = system: CCRF-CEM; experiment: Potentiation of lapatinib-induced antileukemic activity against human CCRF-CEM cells at 4.3 uM in presence of bone-marrow derived stromal cell-conditioned medium; assay type: functional, cell-based
[15] = system: MOLM-14; experiment: Potentiation of crenolatinib-induced antileukemic activity against human MOLM-14 cells at 4.3 uM in presence of bone-marrow derived stromal cell-conditioned medium; assay type: functional, cell-based
[16] = system: U-937; experiment: Potentiation of everolimus-induced antileukemic activity against human U-937 cells at 4.3 uM in presence of bone-marrow derived stromal cell-conditioned medium; assay type: functional, cell-based
[17] = system: CCRF-CEM; experiment: Potentiation of SGI-1027-induced antileukemic activity against human CCRF-CEM cells at 4.3 uM in presence of bone-marrow derived stromal cell-conditioned medium; assay type: functional, cell-based
[18] = system: U-937; experiment: Potentiation of tretinoin-induced antileukemic activity against human U-937 cells at 4.3 uM in presence of bone-marrow derived stromal cell-conditioned medium; assay type: functional, cell-based
[19] = system: MOLM-14; experiment: Potentiation of AraC-induced antileukemic activity against human MOLM-14 cells at 4.3 uM in presence of bone-marrow derived stromal cell-conditioned medium; assay type: functional, cell-based
[20] = system: CCRF-CEM; experiment: Potentiation of sunitinib-induced antileukemic activity against human CCRF-CEM cells at 4.3 uM in presence of bone-marrow derived stromal cell-conditioned medium; assay type: functional, cell-based
[21] = system: MOLM-14; experiment: Potentiation of navitoclax-induced antileukemic activity against human MOLM-14 cells at 4.3 uM in presence of bone-marrow derived stromal cell-conditioned medium; assay type: functional, cell-based
[22] = system: MOLM-14; experiment: Potentiation of venetoclax-induced antileukemic activity against human MOLM-14 cells at 4.3 uM in presence of bone-marrow derived stromal cell-conditioned medium; assay type: functional, cell-based
[23] = molecular target: Bromodomain-containing protein 4 (Homo sapiens, UniProt O60885); experiment: Inhibition of BRD4-BD2 (unknown origin) incubated for 6 hrs by HTRF method
[24] = system: U-937; experiment: Potentiation of crenolatinib-induced antileukemic activity against human U-937 cells at 4.3 uM in presence of bone-marrow derived stromal cell-conditioned medium; assay type: functional, cell-based
[25] = system: MOLM-14; experiment: Potentiation of bosutinib-induced antileukemic activity against human MOLM-14 cells at 4.3 uM in presence of bone-marrow derived stromal cell-conditioned medium; assay type: functional, cell-based
[26] = system: MOLM-14; experiment: Potentiation of bortezomib-induced antileukemic activity against human MOLM-14 cells at 4.3 uM in presence of bone-marrow derived stromal cell-conditioned medium; assay type: functional, cell-based
[27] = system: U-937; experiment: Potentiation of JQ1-induced antileukemic activity against human U-937 cells at 4.3 uM in presence of bone-marrow derived stromal cell-conditioned medium; assay type: functional, cell-based
[28] = system: CCRF-CEM; experiment: Potentiation of crenolatinib-induced antileukemic activity against human CCRF-CEM cells at 4.3 uM in presence of bone-marrow derived stromal cell-conditioned medium; assay type: functional, cell-based
[29] = system: MOLM-14; experiment: Potentiation of sunitinib-induced antileukemic activity against human MOLM-14 cells at 4.3 uM in presence of bone-marrow derived stromal cell-conditioned medium; assay type: functional, cell-based
[30] = system: CCRF-CEM; experiment: Potentiation of seliciclib-induced antileukemic activity against human CCRF-CEM cells at 4.3 uM in presence of bone-marrow derived stromal cell-conditioned medium; assay type: functional, cell-based
[31] = system: U-937; experiment: Potentiation of alisertib-induced antileukemic activity against human U-937 cells at 4.3 uM in presence of bone-marrow derived stromal cell-conditioned medium; assay type: functional, cell-based
[32] = system: CCRF-CEM; experiment: Potentiation of afatinib-induced antileukemic activity against human CCRF-CEM cells at 4.3 uM in presence of bone-marrow derived stromal cell-conditioned medium; assay type: functional, cell-based
[33] = system: U-937; experiment: Potentiation of bortezomib-induced antileukemic activity against human U-937 cells at 4.3 uM in presence of bone-marrow derived stromal cell-conditioned medium; assay type: functional, cell-based
[34] = system: MOLM-14; experiment: Potentiation of trametinib-induced antileukemic activity against human MOLM-14 cells at 4.3 uM in presence of bone-marrow derived stromal cell-conditioned medium; assay type: functional, cell-based
[35] = system: U-937; experiment: Potentiation of arsenic-induced antileukemic activity against human U-937 cells at 4.3 uM in presence of bone-marrow derived stromal cell-conditioned medium; assay type: functional, cell-based
[36] = system: CCRF-CEM; experiment: Potentiation of dexamethasone-induced antileukemic activity against human CCRF-CEM cells at 4.3 uM in presence of bone-marrow derived stromal cell-conditioned medium; assay type: functional, cell-based
[37] = system: U-937; experiment: Potentiation of cyclopamine-induced antileukemic activity against human U-937 cells at 4.3 uM in presence of bone-marrow derived stromal cell-conditioned medium; assay type: functional, cell-based
[38] = system: CCRF-CEM; experiment: Potentiation of erlotinib-induced antileukemic activity against human CCRF-CEM cells at 4.3 uM in presence of bone-marrow derived stromal cell-conditioned medium; assay type: functional, cell-based
[39] = system: CCRF-CEM; experiment: Potentiation of OTX015-induced antileukemic activity against human CCRF-CEM cells at 4.3 uM in presence of bone-marrow derived stromal cell-conditioned medium; assay type: functional, cell-based
[40] = molecular target: Bromodomain-containing protein 2 (Homo sapiens, UniProt P25440); experiment: Inhibition of BRD2-BD1 (unknown origin) incubated for 6 hrs by HTRF method
Bromodomain-containing protein 2, sequence (P25440 whole entry): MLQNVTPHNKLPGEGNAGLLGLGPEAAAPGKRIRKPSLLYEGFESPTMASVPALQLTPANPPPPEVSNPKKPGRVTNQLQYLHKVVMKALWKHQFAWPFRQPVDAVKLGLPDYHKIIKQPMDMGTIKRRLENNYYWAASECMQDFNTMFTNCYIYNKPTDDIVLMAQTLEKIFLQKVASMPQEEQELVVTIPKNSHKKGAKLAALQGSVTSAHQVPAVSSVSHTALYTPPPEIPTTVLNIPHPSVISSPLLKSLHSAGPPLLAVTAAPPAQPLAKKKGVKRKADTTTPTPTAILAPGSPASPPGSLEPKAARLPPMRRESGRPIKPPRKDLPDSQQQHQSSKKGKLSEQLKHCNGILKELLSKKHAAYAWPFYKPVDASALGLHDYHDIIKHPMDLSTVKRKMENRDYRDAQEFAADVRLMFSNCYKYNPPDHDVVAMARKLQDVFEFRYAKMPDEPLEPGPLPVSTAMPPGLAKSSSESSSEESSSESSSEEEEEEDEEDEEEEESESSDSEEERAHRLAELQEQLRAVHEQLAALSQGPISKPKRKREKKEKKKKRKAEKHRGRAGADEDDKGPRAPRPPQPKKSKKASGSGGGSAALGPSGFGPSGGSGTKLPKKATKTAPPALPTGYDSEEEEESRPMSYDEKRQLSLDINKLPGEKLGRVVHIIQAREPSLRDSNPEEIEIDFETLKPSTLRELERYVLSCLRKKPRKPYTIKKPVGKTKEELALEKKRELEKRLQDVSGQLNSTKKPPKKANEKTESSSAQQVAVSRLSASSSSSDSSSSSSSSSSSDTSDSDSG

[41] = system: Acute myeloid leukemic cell; experiment: Potentiation of vorinostat-induced antileukemic activity against patient derived mouse xenografted acute myeloid leukemic cells assessed as cell viability at 0.16 to 10 uM in absence of bone-marrow derived stromal cell-conditioned medium measured after 72 to 144 hrs by cell-titre glo luminescent assay; assay type: functional, cell-based; conditions: Homo sapiens, dose 0.16-10 µM, time lower […], time upper 144.0 hrs

## CC(=O)N1CCc2c(sc3nc(SCC(=O)Nc4cccnc4C)n(Cc4ccco4)c(=O)c23)C1
[1]
  Activity: inactive
[2]
  Activity: inactive
[3]
  Activity: inactive
[4]
  IC50: 9.5 µM
[5]
  Activity: inactive
[6]
  Activity: inactive
[7]
  Activity: inactive
[8]
  Activity: inactive
[9]
  Activity: inactive
[10]
  Activity: inactive
[11]
  Activity: inactive
[12]
  Activity: inactive
[13]
  Activity: inactive
[14]
  Activity: inactive
[15]
  Activity: inactive
[16]
  Activity: inactive
[17]
  Activity: inactive
[18]
  Activity: inactive
[19]
  Activity: inactive
[20]
  Activity: inactive
[21]
  Activity: inactive
[22]
  Activity: inactive
[23]
  IC50: 0.13 µM
[24]
  Activity: inactive
[25]
  Activity: inactive
[26]
  Activity: inactive
[27]
  Activity: inactive
[28]
  Activity: inactive
[29]
  Activity: inactive
[30]
  Activity: inactive
[31]
  Activity: inactive
[32]
  Activity: inactive
[33]
  Activity: inactive
[34]
  Activity: inactive
[35]
  Activity: inactive
[36]
  Activity: inactive
[37]
  Activity: inactive
[38]
  Activity: inactive
[39]
  Activity: inactive
[40]
  IC50: 4.7 µM
[41]
  Activity: inactive
